Laboratory results published in article PMC5218480 (PLoS ONE, 2017).

Tested on: MV-4-11 cells
Test: Gene expression microarray analysis (Affymetrix PrimeView) and GSEA
Format: cell-based, human
Set-up: RFU PODN (11730768_x_at) / Fold change /veh PODN (11730768_x_at) / RFU LINC00158 (11744669_a_at) / Fold change /veh LINC00158 (11744669_a_at) / RFU DUSP10 (11751237_a_at) / Fold change /veh DUSP10 (11751237_a_at) / RFU ID3 (11757404_x_at) / Fold change /veh ID3 (11757404_x_at) / RFU PLEKHG5 (11737974_s_at) / Fold change /veh PLEKHG5 (11737974_s_at) / RFU LRRC4B (11730491_at) / Fold change /veh LRRC4B (11730491_at) / RFU GIMAP4 (11747438_a_at) / Fold change /veh GIMAP4 (11747438_a_at) / RFU KRT8 (11758183_x_at) / Fold change /veh KRT8 (11758183_x_at) / RFU CNN1 (11734310_a_at) / Fold change /veh CNN1 (11734310_a_at) / RFU VPS37D (11726825_at) / Fold change /veh VPS37D (11726825_at) / RFU C10orf10 (11716522_x_at) / Fold change /veh C10orf10 (11716522_x_at) / RFU KIR2DL2 /// KIR2DL4 /// KIR2DL5A /// KIR2DL5B /// KIR2DS1 /// KIR2DS2 /// KIR2DS3 /// KIR2DS4 /// KIR3DL3 /// KIR3DL3 /// KIR3DS1 (11738374_at) / Fold change /veh KIR2DL2 /// KIR2DL4 /// KIR2DL5A /// KIR2DL5B /// KIR2DS1 /// KIR2DS2 /// KIR2DS3 /// KIR2DS4 /// KIR3DL3 /// KIR3DL3 /// KIR3DS1 (11738374_at) / RFU C1QL1 (11718748_at) / Fold change /veh C1QL1 (11718748_at) / RFU TMPRSS4 (11747572_a_at) / Fold change /veh TMPRSS4 (11747572_a_at) / RFU HAMP (11756126_x_at) / Fold change /veh HAMP (11756126_x_at) / RFU RNFT2 (11725882_a_at) / Fold change /veh RNFT2 (11725882_a_at) / RFU NR4A2 (11747474_a_at) / Fold change /veh NR4A2 (11747474_a_at) / RFU ABCC12 (11746883_a_at) / Fold change /veh ABCC12 (11746883_a_at) / RFU TMEM136 (11760407_x_at) / Fold change /veh TMEM136 (11760407_x_at) / RFU CLDN22 /// WWC2 (11732394_at) / Fold change /veh CLDN22 /// WWC2 (11732394_at) / RFU HLA-DPB1 (11760878_x_at) / Fold change /veh HLA-DPB1 (11760878_x_at) / RFU SPINT1 (11716480_a_at) / Fold change /veh SPINT1 (11716480_a_at) / RFU GAP43 (11754022_s_at) / Fold change /veh GAP43 (11754022_s_at) / RFU A4GNT (11735810_at) / Fold change /veh A4GNT (11735810_at) / RFU PRB3 (11715151_x_at) / Fold change /veh PRB3 (11715151_x_at) / RFU TUBB4B (11761932_at) / Fold change /veh TUBB4B (11761932_at) / RFU CAPN14 (11732068_a_at) / Fold change /veh CAPN14 (11732068_a_at) / RFU TMCC2 (11721928_a_at) / Fold change /veh TMCC2 (11721928_a_at) / RFU IRGQ (11745062_a_at) / Fold change /veh IRGQ (11745062_a_at) / RFU FAM174B (11720279_a_at) / Fold change /veh FAM174B (11720279_a_at) / RFU TMPRSS4 (11748680_a_at) / Fold change /veh TMPRSS4 (11748680_a_at) / RFU FAM212B (11763350_a_at) / Fold change /veh FAM212B (11763350_a_at) / RFU PLEKHG5 (11743358_a_at) / Fold change /veh PLEKHG5 (11743358_a_at) / RFU ZSCAN30 (11745921_a_at) / Fold change /veh ZSCAN30 (11745921_a_at) / RFU CMKLR1 (11741424_a_at) / Fold change /veh CMKLR1 (11741424_a_at) / RFU LOC101060620 /// MAPK8IP1 (11723275_at) / Fold change /veh LOC101060620 /// MAPK8IP1 (11723275_at) / RFU SPTSSB (11747773_x_at) / Fold change /veh SPTSSB (11747773_x_at) / RFU PRSS12 (11739890_at) / Fold change /veh PRSS12 (11739890_at) / RFU BIN1 (11741810_x_at) / Fold change /veh BIN1 (11741810_x_at) / RFU WNT11 (11732464_a_at) / Fold change /veh WNT11 (11732464_a_at) / RFU C10orf10 (11716521_a_at) / Fold change /veh C10orf10 (11716521_a_at) / RFU C5orf56 (11738089_at) / Fold change /veh C5orf56 (11738089_at) / RFU CYB561 (11721691_x_at) / Fold change /veh CYB561 (11721691_x_at) / RFU ANKRD19P (11752326_a_at) / Fold change /veh ANKRD19P (11752326_a_at) / RFU OR2T12 /// OR2T33 /// OR2T8 (11738714_s_at) / Fold change /veh OR2T12 /// OR2T33 /// OR2T8 (11738714_s_at) / RFU VCAN (11748164_a_at) / Fold change /veh VCAN (11748164_a_at) / RFU JSRP1 (11732532_at) / Fold change /veh JSRP1 (11732532_at) / RFU KRTAP10-11 (11738290_x_at) / Fold change /veh KRTAP10-11 (11738290_x_at) / RFU MYO3A (11730013_a_at) / Fold change /veh MYO3A (11730013_a_at) / RFU EBF3 (11725865_a_at) / Fold change /veh EBF3 (11725865_a_at) / RFU CAMK2N1 (11719241_x_at) / Fold change /veh CAMK2N1 (11719241_x_at) / RFU C5orf56 (11738088_a_at) / Fold change /veh C5orf56 (11738088_a_at) / RFU OLFML3 (11715873_a_at) / Fold change /veh OLFML3 (11715873_a_at) / RFU LOC100653217 /// NTM (11731650_a_at) / Fold change /veh LOC100653217 /// NTM (11731650_a_at) / RFU MAPK11 (11762145_a_at) / Fold change /veh MAPK11 (11762145_a_at) / RFU FIZ1 (11724087_x_at) / Fold change /veh FIZ1 (11724087_x_at) / RFU OASL (11726364_x_at) / Fold change /veh OASL (11726364_x_at) / RFU SOX15 (11748057_x_at) / Fold change /veh SOX15 (11748057_x_at) / RFU CD79A (11719716_a_at) / Fold change /veh CD79A (11719716_a_at) / RFU HIST1H1D (11736915_at) / Fold change /veh HIST1H1D (11736915_at) / RFU CASKIN2 (11723855_a_at) / Fold change /veh CASKIN2 (11723855_a_at) / RFU LOC730098 (11760151_x_at) / Fold change /veh LOC730098 (11760151_x_at) / RFU OR4N2 (11742367_at) / Fold change /veh OR4N2 (11742367_at) / RFU PRRT2 (11749266_a_at) / Fold change /veh PRRT2 (11749266_a_at) / RFU SNX32 (11753110_a_at) / Fold change /veh SNX32 (11753110_a_at) / RFU CDHR5 (11726645_a_at) / Fold change /veh CDHR5 (11726645_a_at) / RFU RCAN1 (11760418_a_at) / Fold change /veh RCAN1 (11760418_a_at) / RFU FAM167A (11723789_a_at) / Fold change /veh FAM167A (11723789_a_at) / RFU FAM26E (11764081_at) / Fold change /veh FAM26E (11764081_at) / RFU ISYNA1 (11749810_s_at) / Fold change /veh ISYNA1 (11749810_s_at) / RFU ACY1 (11761880_at) / Fold change /veh ACY1 (11761880_at) / RFU 11764098_at / Fold change /veh 11764098_at / RFU SAMD14 (11745864_x_at) / Fold change /veh SAMD14 (11745864_x_at) / RFU NPB (11741838_a_at) / Fold change /veh NPB (11741838_a_at) / RFU TMPRSS6 (11731388_a_at) / Fold change /veh TMPRSS6 (11731388_a_at) / RFU KRTAP10-2 (11738614_at) / Fold change /veh KRTAP10-2 (11738614_at) / RFU ARHGAP8 /// PRR5-ARHGAP8 (11727945_x_at) / Fold change /veh ARHGAP8 /// PRR5-ARHGAP8 (11727945_x_at) / RFU KRTAP5-7 /// NADSYN1 (11734609_at) / Fold change /veh KRTAP5-7 /// NADSYN1 (11734609_at) / RFU RASL12 (11751679_a_at) / Fold change /veh RASL12 (11751679_a_at) / RFU CDKN2B (11736163_a_at) / Fold change /veh CDKN2B (11736163_a_at) / RFU PRF1 (11729649_at) / Fold change /veh PRF1 (11729649_at) / RFU, ZNF638 /// ZNF638-IT1 / Fold change vs veh, ZNF638 /// ZNF638-IT1 / RFU, PANK3 / Fold change vs veh, PANK3 / RFU, SH3YL1 / Fold change vs veh, SH3YL1 / RFU, ZEB2 / Fold change vs veh, ZEB2 / RFU, NRIP1 / Fold change vs veh, NRIP1 / RFU, PTTG1IP / Fold change vs veh, PTTG1IP / RFU, CAPN2 / Fold change vs veh, CAPN2 / RFU, MED14 / Fold change vs veh, MED14 / RFU, SNORA58 / Fold change vs veh, SNORA58 / RFU, C1orf63 / Fold change vs veh, C1orf63 / RFU, LRRFIP1 / Fold change vs veh, LRRFIP1 / RFU, NDUFAF7 / Fold change vs veh, NDUFAF7 / RFU, SLC12A2 / Fold change vs veh, SLC12A2 / RFU, IBTK / Fold change vs veh, IBTK / RFU, ESF1 / Fold change vs veh, ESF1 / Fold change vs veh, TMEM50B / RFU, TAOK1 / Fold change vs veh, TAOK1 / RFU, ACBD3 / Fold change vs veh, ACBD3 / RFU, TMA16 / Fold change vs veh, TMA16 / RFU, RWDD3 / Fold change vs veh, RWDD3 / RFU, BCAT1 / Fold change vs veh, BCAT1 / RFU, EDEM3 / Fold change vs veh, EDEM3 / RFU, TMEM33 / Fold change vs veh, TMEM33 / RFU, WDR75 / Fold change vs veh, WDR75 / RFU, AHCTF1 / Fold change vs veh, AHCTF1 / RFU, TFRC / Fold change vs veh, TFRC / RFU, ZDHHC17 / Fold change vs veh, ZDHHC17 / RFU, NOM1 / Fold change vs veh, NOM1 / RFU, ARL8B / Fold change vs veh, ARL8B / RFU, ZBTB11 / Fold change vs veh, ZBTB11 / RFU, TAMM41 / Fold change vs veh, TAMM41 / RFU, KIAA1704 /// LOC100996395 / Fold change vs veh, KIAA1704 /// LOC100996395 / RFU, ING1 / Fold change vs veh, ING1 / RFU, TRMT61B / Fold change vs veh, TRMT61B / RFU, FUBP3 / Fold change vs veh, FUBP3 / RFU, TP53 / Fold change vs veh, TP53 / RFU, TNKS2 / Fold change vs veh, TNKS2 / RFU, ZFP14 / Fold change vs veh, ZFP14 / RFU, ACTR2 / Fold change vs veh, ACTR2 / RFU, PPP3R1 / Fold change vs veh, PPP3R1 / RFU, PIK3R1 / Fold change vs veh, PIK3R1 / RFU, HNRNPA1 / Fold change vs veh, HNRNPA1 / RFU, RNF170 / Fold change vs veh, RNF170 / RFU, ZNF28 / Fold change vs veh, ZNF28 / RFU, RNGTT / Fold change vs veh, RNGTT / RFU, OGT / Fold change vs veh, OGT / RFU, BRD1 / Fold change vs veh, BRD1 / RFU, MARS / Fold change vs veh, MARS / RFU, ZNF655 / Fold change vs veh, ZNF655 / RFU, FAHD1 / Fold change vs veh, FAHD1 / RFU, BDP1 / Fold change vs veh, BDP1 / RFU, LRRCC1 / Fold change vs veh, LRRCC1 / RFU, ARID1A / Fold change vs veh, ARID1A / RFU, ZNF146 / Fold change vs veh, ZNF146 / RFU, ZNF330 / Fold change vs veh, ZNF330 / RFU, GPN3 / Fold change vs veh, GPN3 / RFU, C9orf123 / Fold change vs veh, C9orf123 / RFU, N4BP2L2 / Fold change vs veh, N4BP2L2 / RFU, ARFIP1 / Fold change vs veh, ARFIP1 / RFU, FAM179B / Fold change vs veh, FAM179B / RFU, BCL10 / Fold change vs veh, BCL10 / RFU, UHRF1BP1L / Fold change vs veh, UHRF1BP1L / RFU, BET1 / Fold change vs veh, BET1 / RFU, CNOT2 / Fold change vs veh, CNOT2 / RFU, ZNF268 / Fold change vs veh, ZNF268 / Fold change vs veh, ZNF507 / RFU, DGCR2 / Fold change vs veh, DGCR2 / RFU, WDSUB1 / Fold change vs veh, WDSUB1 / Fold change vs veh, HSP90B1 /// MIR3652 / RFU, ADSS / Fold change vs veh, ADSS / RFU, GK / Fold change vs veh, GK / RFU, ZNF148 / Fold change vs veh, ZNF148 / RFU, TAF9 / Fold change vs veh, TAF9 / RFU, SLC1A5 / Fold change vs veh, SLC1A5 / RFU, SLMO2 / Fold change vs veh, SLMO2 / RFU, ABCC4 / Fold change vs veh, ABCC4 / RFU, LOC101060439 /// RAP1B / Fold change vs veh, LOC101060439 /// RAP1B / RFU, RFX7 / Fold change vs veh, RFX7 / RFU, GTPBP10 / Fold change vs veh, GTPBP10 / RFU, CNEP1R1 / Fold change vs veh, CNEP1R1 / RFU, BIVM-ERCC5 /// ERCC5 / Fold change vs veh, BIVM-ERCC5 /// ERCC5 / RFU, ILF3 / Fold change vs veh, ILF3 / RFU 11762660_at / Fold change /veh 11762660_at / RFU VCAN (11757783_s_at) / Fold change /veh VCAN (11757783_s_at) / RFU DDX43 (11728927_at) / Fold change /veh DDX43 (11728927_at) / RFU KRT8 (11758188_x_at) / Fold change /veh KRT8 (11758188_x_at) / RFU NKD1 (11759106_at) / Fold change /veh NKD1 (11759106_at) / RFU SRD5A1 (11742802_a_at) / Fold change /veh SRD5A1 (11742802_a_at) / RFU TPSAB1 /// TPSB2 (11721975_s_at) / Fold change /veh TPSAB1 /// TPSB2 (11721975_s_at) / RFU GSTM3 (11746129_a_at) / Fold change /veh GSTM3 (11746129_a_at) / RFU IL23R (11737362_x_at) / Fold change /veh IL23R (11737362_x_at) / RFU TMEM51 (11727254_a_at) / Fold change /veh TMEM51 (11727254_a_at) / RFU PIWIL2 (11732686_x_at) / Fold change /veh PIWIL2 (11732686_x_at) / RFU ORM1 (11744905_x_at) / Fold change /veh ORM1 (11744905_x_at) / RFU CCDC152 (11743942_at) / Fold change /veh CCDC152 (11743942_at) / RFU ECM1 (11717891_a_at) / Fold change /veh ECM1 (11717891_a_at) / RFU IL23R (11748794_a_at) / Fold change /veh IL23R (11748794_a_at) / RFU TNFAIP8L3 (11732012_x_at) / Fold change /veh TNFAIP8L3 (11732012_x_at) / RFU MBOAT4 (11741988_at) / Fold change /veh MBOAT4 (11741988_at) / RFU 11764193_at / Fold change /veh 11764193_at / RFU TMEM53 (11763286_at) / Fold change /veh TMEM53 (11763286_at) / RFU MAGEB2 (11727129_at) / Fold change /veh MAGEB2 (11727129_at) / RFU TMEM200A (11744735_a_at) / Fold change /veh TMEM200A (11744735_a_at) / RFU CCDC152 (11751479_a_at) / Fold change /veh CCDC152 (11751479_a_at) / RFU FAM211A (11726209_a_at) / Fold change /veh FAM211A (11726209_a_at) / RFU RGS16 (11746705_a_at) / Fold change /veh RGS16 (11746705_a_at) / RFU VCAN (11755009_s_at) / Fold change /veh VCAN (11755009_s_at) / RFU RHOB (11743442_s_at) / Fold change /veh RHOB (11743442_s_at) / RFU RGS16 (11720943_a_at) / Fold change /veh RGS16 (11720943_a_at) / RFU RGS16 (11720944_at) / Fold change /veh RGS16 (11720944_at) / RFU, VPS4B / Fold change vs veh, VPS4B / RFU, CREB1 / Fold change vs veh, CREB1 / RFU, DNAJC13 / Fold change vs veh, DNAJC13 / RFU, GNAQ / Fold change vs veh, GNAQ / RFU, CDK5R1 / Fold change vs veh, CDK5R1 / RFU, ZRANB3 / Fold change vs veh, ZRANB3 / RFU, CUL4A / Fold change vs veh, CUL4A / RFU, CCNY / Fold change vs veh, CCNY / RFU, UFL1 / Fold change vs veh, UFL1 / RFU, COG3 / Fold change vs veh, COG3 / RFU, DIAPH2 / Fold change vs veh, DIAPH2 / RFU, SKA2 / Fold change vs veh, SKA2 / RFU, AFF3 / Fold change vs veh, AFF3 / RFU, LMF1 / Fold change vs veh, LMF1 / RFU, IPO11 / Fold change vs veh, IPO11 / RFU, DFFB / Fold change vs veh, DFFB / RFU, FOXP1 / Fold change vs veh, FOXP1 / RFU, CARD8 / Fold change vs veh, CARD8 / RFU, STRN3 / Fold change vs veh, STRN3 / RFU, ADK / Fold change vs veh, ADK / RFU, RASSF2 / Fold change vs veh, RASSF2 / RFU, WIPF1 / Fold change vs veh, WIPF1 / RFU, LARP1B / Fold change vs veh, LARP1B / RFU, RASA1 / Fold change vs veh, RASA1 / RFU, RB1 / Fold change vs veh, RB1 / RFU, PPFIA1 / Fold change vs veh, PPFIA1 / RFU, MAT2A / Fold change vs veh, MAT2A / RFU, CCT5 / Fold change vs veh, CCT5 / RFU, WDR92 / Fold change vs veh, WDR92 / RFU, CUX1 / Fold change vs veh, CUX1 / RFU, TTC7A / Fold change vs veh, TTC7A / RFU, TMEM135 / Fold change vs veh, TMEM135 / RFU, DEPTOR / Fold change vs veh, DEPTOR / RFU, CPM / Fold change vs veh, CPM / RFU, DNAJB6 / Fold change vs veh, DNAJB6 / RFU, CACNA2D3 / Fold change vs veh, CACNA2D3 / RFU, DTX4 / Fold change vs veh, DTX4 / RFU, TFCP2 / Fold change vs veh, TFCP2 / RFU, GMCL1 /// GMCL1P1 / Fold change vs veh, GMCL1 /// GMCL1P1 / RFU, AEBP2 / Fold change vs veh, AEBP2 / RFU, SNHG1 /// SNORD22 /// SNORD25 /// SNORD26 /// SNORD27 /// SNORD28 /// SNORD29 /// SNORD31 / Fold change vs veh, SNHG1 /// SNORD22 /// SNORD25 /// SNORD26 /// SNORD27 /// SNORD28 /// SNORD29 /// SNORD31 / Fold change (Aza/veh), C12orf56 (ProbeSet 11735607_a_at) / Fold change (ACY-1035/veh), C12orf56 (ProbeSet 11735607_a_at) / Fold change (Aza/veh), FGFR1OP (ProbeSet 11751329_s_at) / Fold change (ACY-1035/veh), FGFR1OP (ProbeSet 11751329_s_at) / Fold change (Aza/veh), VPS36 (ProbeSet 11739960_a_at) / Fold change (ACY-1035/veh), VPS36 (ProbeSet 11739960_a_at) / RFU SYPL1 (11715823_x_at) / Fold change /veh SYPL1 (11715823_x_at) / RFU IGFBP7 (11715501_s_at) / Fold change /veh IGFBP7 (11715501_s_at) / RFU REEP3 (11722064_at) / Fold change /veh REEP3 (11722064_at) / RFU IGLL1 (11728026_x_at) / Fold change /veh IGLL1 (11728026_x_at): dose or concentration left out as unconfirmed
Conditions: ProbeSet 11727641_at; LIST B

Nc1ncn([C@@H]2O[C@H](CO)[C@@H](O)[C@H]2O)c(=O)n1 [azacitidine]
Fold change vs veh, NOM1: 1.06
